# Source: patent publication EP0031104A1, “Thiazolidine compounds, processes for their preparation and pharmaceutical compositions containing them” (SANTEN PHARMACEUTICAL CO., LTD., priority 1979, dated 1981)
# Where two headings read alike, the source gives them in different places.
# How the values were obtained:
# aldose reductase = target: T1, aldose reductase (Rattus norvegicus, UniProt P07943); experiment: Aldose reductase inhibition (optical density at 340 nm, Kinoshita's method); format: biochemical
# T1 construct: Aldose reductase is purified from rat lenses; from tissue; host or cells: rat lens
# Description: Aldose reductase is purified from rat lenses according to the method of Hoyman et al. [J. Biol. Chem., 240, 877 (1965)]. Action of the compounds (I) of this invention is evaluated by measurement of optical density according to the J.H. Kinoshita's method [Invest.
# Acute toxicity test = conditions: mouse, in vivo, iv
# Description: The male ddy-std. strain mice (4 weeks of age, weighing 19-21g) were placed in a breeding room of constant temperature and humidity (23+1°C, 55+5%) and fed freely pellet diet (CE-2, Clea Japan, Inc.) and water ad. libitum for a week. The mice showing the normal growth were selected for the experiment.
# Test compounds are dissolved in distilled water and administered (i.v.) in a dose of 0.5ml/20g body weight.
# [1] = aldose reductase purified from rat lenses, pH 6.2, DL glyceraldehyde, NADPH, read-out: IC50(M) Molar concentration of a compound producing 50% inhibition of aldose reductase
SMILES,IC50 (aldose reductase),IC50 (aldose reductase; [1]),"LD50 (Acute toxicity test; male ddy-std. strain mice, dissolved in distilled water)",LD50 (Acute toxicity test)
O=C(O)[C@@H]1CSC(c2cccc([N+](=O)[O-])c2)N1C(=O)CCCCCCCCC(=O)N1C(c2cccc([N+](=O)[O-])c2)SC[C@H]1C(=O)O (stereo partly drawn) [compound 57],5.4e-09 M,–,–,–
O=C(O)CCCCCCCC(=O)N1C(c2cccc([N+](=O)[O-])c2)SC[C@H]1C(=O)O (stereo partly drawn) [compound 22],–,8.2e-10 M,–,–
"O=C(O)[C@@H]1CSC(c2cccc([N+](=O)[O-])c2)N1C(=O)CCCCCCCC(=O)N1C(c2cccc([N+](=O)[O-])c2)SC[C@H]1C(=O)O (stereo partly drawn) [compound 47, (4R,4'R)-3,3'-(nonanedioyl)bis-[2-(3-nitrophenyl)-4-thiazolidinecarboxylic acid]]",1.6e-10 M,–,1000 to 1500 mg/kg,–
N#Cc1cccc(C2SC[C@@H](C(=O)O)N2C(=O)CCCCCCCCC(=O)N2C(c3cccc(C#N)c3)SC[C@H]2C(=O)O)c1 (stereo partly drawn) [compound 56],–,1.7e-09 M,–,1000 to 1500 mg/kg
